pIC50: −log10 of the molar value.
What was measured:
[1] = target: T1, Amine oxidase [flavin-containing] A (Homo sapiens, UniProt P21397); assay: Inhibition of human recombinant MAOA expressed in baculovirus-infected BTI insect cells at 100 uM after 15 mins by fluorimetric assay; conditions: 0.25 h
T1 sequence (P21397 whole entry): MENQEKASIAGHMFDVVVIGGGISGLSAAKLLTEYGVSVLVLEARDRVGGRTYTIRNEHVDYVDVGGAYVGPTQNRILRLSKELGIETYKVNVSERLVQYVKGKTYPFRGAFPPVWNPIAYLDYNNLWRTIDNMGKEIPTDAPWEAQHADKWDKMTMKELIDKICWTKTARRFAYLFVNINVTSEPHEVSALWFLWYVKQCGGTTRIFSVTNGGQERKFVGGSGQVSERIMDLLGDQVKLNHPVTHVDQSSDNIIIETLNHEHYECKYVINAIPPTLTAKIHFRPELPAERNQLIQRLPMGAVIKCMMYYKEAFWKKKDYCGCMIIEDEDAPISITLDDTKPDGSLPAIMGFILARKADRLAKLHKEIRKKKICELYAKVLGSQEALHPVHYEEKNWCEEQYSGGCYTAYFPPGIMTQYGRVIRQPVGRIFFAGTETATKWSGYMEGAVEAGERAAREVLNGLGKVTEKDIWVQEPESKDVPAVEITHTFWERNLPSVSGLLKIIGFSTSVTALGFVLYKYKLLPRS

[2] = target: T2, Amine oxidase [flavin-containing] B (Homo sapiens, UniProt P27338); assay: Inhibition of human recombinant MAOB expressed in baculovirus-infected BTI insect cells at 100 uM after 15 mins by fluorimetric assay; conditions: 0.25 h
T2 sequence (P27338 whole entry): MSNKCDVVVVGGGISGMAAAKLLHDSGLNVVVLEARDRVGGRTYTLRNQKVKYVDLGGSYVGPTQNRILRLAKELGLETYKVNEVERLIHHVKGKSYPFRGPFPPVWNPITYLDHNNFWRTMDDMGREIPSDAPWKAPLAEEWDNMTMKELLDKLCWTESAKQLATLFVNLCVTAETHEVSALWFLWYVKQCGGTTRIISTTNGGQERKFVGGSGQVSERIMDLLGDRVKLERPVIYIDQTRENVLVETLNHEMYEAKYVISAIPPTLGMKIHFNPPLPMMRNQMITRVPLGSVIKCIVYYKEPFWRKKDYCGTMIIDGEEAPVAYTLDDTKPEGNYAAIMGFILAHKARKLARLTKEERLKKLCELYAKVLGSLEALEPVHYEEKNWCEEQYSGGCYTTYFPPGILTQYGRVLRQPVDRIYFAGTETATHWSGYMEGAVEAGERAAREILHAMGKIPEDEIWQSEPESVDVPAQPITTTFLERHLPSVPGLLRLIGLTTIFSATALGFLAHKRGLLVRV

[3] = target: T2, Amine oxidase [flavin-containing] B; assay: Inhibition of human recombinant MAOB expressed in baculovirus-infected BTI insect cells after 15 mins by fluorimetric assay; format: cell-based
Homo sapiens = species: Homo sapiens; assay: Selectivity ratio of IC50 for human recombinant MAOA to IC50 for human recombinant MAOB

SMILES	inhibition (INH) [1]	inhibition (INH) [2]	pIC50 [3]	Ratio IC50 (Homo sapiens)
CSc1ccc(NC(=O)c2cc(=O)c3ccccc3o2)cc1	Not Active	Not Active	–	–
Cc1ccc(NC(=O)c2cc(=O)c3ccccc3o2)cc1	Not Active	Not Active	–	–
O=C(Nc1ccccc1)c1cc(=O)c2ccccc2o1	Not Active	Not Active	–	–
COc1ccc(NC(=O)c2coc3ccccc3c2=O)cc1	Not Active	–	6.35	> 222
COc1ccc(NC(=O)c2cc(=O)c3ccccc3o2)cc1	Not Active	Not Active	–	–
O=C(Nc1ccc(I)cc1)c1cc(=O)c2ccccc2o1	Not Active	Not Active	–	–
CSc1ccc(NC(=O)c2coc3ccccc3c2=O)cc1	Not Active	–	6.92	> 833
